From patent publication US20120252792A1, “METHODS AND COMPOSITIONS FOR MODULATING RHO-MEDIATED GENE TRANSCRIPTION” (THE REGENTS OF THE UNIVERSITY OF MICHIGAN, priority 2009, published 2012)
pIC50: −log10 of the molar value.

What was measured:
Type in all cases: cell-based, human
Rho/MKL1 pathway = assay: SRE.L-firefly luciferase reporter (dual luciferase assay), Gα12QL-transfected PC-3 cells; details: Homo sapiens, 19 h; for inhibition at 10 µM / inhibition at 100 µM: DMSO alone = 0%; for inhibition at 10 µM: read-out: % inh SRE.L (10 μM); for inhibition at 100 µM: read-out: % inh SRE.L (100 μM)
Description: (§1) Dual Luciferase Assay: Seed PC-3 prostate cancer cells (40,000 cells/well) were grown in 96-well plates in 10% FBS containing DMEM medium. Cells were transiently transfected with the Gα12QL activator of the Rho/MKL1 pathway, along with the SRE.L-firefly luciferase reporter construct for 6 hours. Additionally, cells were co-transfected with the TK-Renilla luciferase reporter as an indicator of non-specific compound effects. Various concentrations of selected compounds were added to the 96-well plates. Plates were incubated for 19 hours at 37° C. and 5% CO2 in 0.5% FBS containing DMEM medium. Cells were lysed with 1X Passive Lysis Buffer (Promega). Plates were incubated for 30 minutes at room temperature. Luminescence counts were read with a Victor2 (Perkin-Elmer) plate reader.

[1] = system: TK-Renilla luciferase reporter; assay: TK-Renilla (pRL-TK) luciferase reporter, indicator of non-specific compound effects; details: Homo sapiens, PC-3, 19 h, PC-3 cells; for inhibition at 10 µM: read-out: % inh PRL-TK (10 μM); for inhibition at 100 µM: read-out: % inh PRL-TK (100 μM)
Description: as §1

[2] = system: PC-3 prostate cancer cells; assay: WST1 cell viability assay; details: Homo sapiens, PC-3 cells, just before lysis; for inhibition at 10 µM: PC-3, 10 μM, read-out: % inh WST-1 (10 μM); for inhibition at 100 µM: PC-3, 100 μM, read-out: % inh WST-1 (100 μM)
Description: WST1 Cell Viability Assay: One hour prior to cell lysis for the dual luciferase assay, 10 μl per well of WST1 reagent (Roche) was added to the 96-well plates. Plates were incubated for 1 hour at 37° C. and 5% CO2. Cell viability was measured by WST1 absorbance at 450 nm with a Victor2 (Perkin-Elmer) plate reader.

pIC50 (Rho/MKL1 pathway)	Compound	inhibition at 10 µM (Rho/MKL1 pathway) [%]	inhibition at 100 µM (Rho/MKL1 pathway) [%]	inhibition at 10 µM [1] [%]	inhibition at 100 µM [1] [%]	inhibition at 10 µM [2] [%]	inhibition at 100 µM [2] [%]
5.33	O=C(CONC(=O)c1cc(C(F)(F)F)cc(C(F)(F)F)c1)Nc1ccc(Cl)cc1 [Compound 1, N-(2-(4-chlorophenylamino)-2-oxoethoxy)-3,5-bis(trifluoromethyl)benzamide]	71	100	53	89	42	91
4.68	O=C(CCCNC(=O)c1cc(C(F)(F)F)cc(C(F)(F)F)c1)Nc1ccc(Cl)cc1 [Compound 2, N-(4-(4-chlorophenylamino)-4-oxobutyl)-3,5-bis(trifluoromethyl)benzamide]	37	79	5	42	0	12
4.48	O=C(CNC(=O)c1cc(C(F)(F)F)cc(C(F)(F)F)c1)Nc1ccc(Cl)cc1 [Compound 3, N-(2-(4-chlorophenylamino)-2-oxoethyl)-3,5-bis(trifluoromethyl)benzamide]	45	85	15	25	0	30
4.80	O=C(Nc1ccc(Cl)cc1)C1CCN(C(=O)c2cc(C(F)(F)F)cc(C(F)(F)F)c2)CC1 [Compound 5, 1-(3,5-bis(trifluoromethyl)benzoyl)-N-(4-chlorophenyl)piperidine-4-carboxamide]	17	87	0	17	0	39
5.07	O=C(CONC(=O)c1ccc(Cl)cc1)Nc1cc(C(F)(F)F)cc(C(F)(F)F)c1 [Compound 6, N-(2-(3,5-bis(trifluoromethyl)phenylamino)-2-oxoethoxy)-4-chlorobenzamide]	58	100	19	87	11	96
4.16	O=C(Nc1ccc(Cl)cc1)C1CCCN1C(=O)c1cc(C(F)(F)F)cc(C(F)(F)F)c1 (stereo not shown) [Compound 7, 1-(3,5-bis(trifluoromethyl)benzoyl)-N-(4-chlorophenyl)pyrrolidine-2-carboxamide]	23	83	12	27	0	22
5.23	O=C(CONC(=O)c1cc(C(F)(F)F)cc(C(F)(F)F)c1)Nc1cccc(Cl)c1 [Compound 10, N-(2-(3-chlorophenylamino)-2-oxoethoxy)-3,5-bis(trifluoromethyl)benzamide]	65	100	51	89	49	97
5.77	O=C(Nc1ccc(Cl)cc1)c1cccc(NC(=O)c2cc(C(F)(F)F)cc(C(F)(F)F)c2)c1 [Compound 14, N-(3-(4-chlorophenylcarbamoyl)phenyl)-3,5-bis(trifluoromethyl)benzamide]	79		0		38	
5.29	O=C(NCCCNc1ccc(Cl)cc1)c1cc(C(F)(F)F)cc(C(F)(F)F)c1 [Compound 15, N-(3-(4-chlorophenylamino)propyl)-3,5-bis(trifluoromethyl)benzamide]	70	80	37	35	0	11
4.74	O=C(Nc1ccccc1C(=O)Nc1ccc(Cl)cc1)c1cc(C(F)(F)F)cc(C(F)(F)F)c1 [Compound 16, N-(2-(4-chlorophenylcarbamoyl)phenyl)-3,5-bis(trifluoromethyl)benzamide]	34		0		0	
5.39	O=C(NCc1csc(-c2ccc(Cl)cc2)n1)c1cc(C(F)(F)F)cc(C(F)(F)F)c1 [Compound 18, N-((2-(4-chlorophenyl)thiazol-4-yl)methyl)-3,5-bis(trifluoromethyl)benzamide]	50	45	39	38	0	0
5.05	O=C(NCCCOc1ccc(Cl)cc1)c1cc(C(F)(F)F)cc(C(F)(F)F)c1 [Compound 19, N-(3-(4-chlorophenoxy)propyl)-3,5-bis(trifluoromethyl)benzamide]	55	86	28	65	0	38
5.09	O=C(CCNCc1cc(C(F)(F)F)cc(C(F)(F)F)c1)Nc1ccc(Cl)cc1 [Compound 22, 3-(3,5-bis(trifluoromethyl)benzylamino)-N-(4-chlorophenyl)propanamide]	64	100	12	91	0	92
5.34	O=C(CC1CC(c2cc(C(F)(F)F)cc(C(F)(F)F)c2)=NO1)Nc1ccc(Cl)cc1 (stereo not shown) [Compound 23, 2-(3-(3,5-bis(trifluoromethyl)phenyl)-4,5-dihydroisoxazol-5-yl)-N-(4-chlorophenyl)acetamide]	77	87	58	73	0	66
5.00	O=C(CC1CCCCN1C(=O)c1cc(C(F)(F)F)cc(C(F)(F)F)c1)Nc1ccc(Cl)cc1 (stereo not shown) [Compound 26, 2-(1-(3,5-bis(trifluoromethyl)benzoyl)piperidin-2-yl)-N-(4-chlorophenyl)acetamide]	41	85	0	76	0	27
4.81	O=C(Nc1ccc(Cl)cc1)C1CCN(C(=O)c2cc(C(F)(F)F)cc(C(F)(F)F)c2)C1 (stereo not shown) [Compound 27, 1-(3,5-bis(trifluoromethyl)benzoyl)-N-(4-chlorophenyl)pyrrolidine-3-carboxamide]	30	100	14	92	0	86
	O=C(NCC1CCN(c2ccc(Cl)cc2)C1=O)c1cc(C(F)(F)F)cc(C(F)(F)F)c1 (stereo not shown) [Compound 53, N-((1-(4-chlorophenyl)-2-oxopyrrolidin-3-yl)methyl)-3,5-bis(trifluoromethyl)benzamide]	14.1	32.3			7.9	26.9
	O=C1Nc2ccc(Cl)cc2C1=CNC(=O)c1cc(C(F)(F)F)cc(C(F)(F)F)c1 [Compound 54, N-((5-chloro-2-oxoindolin-3-ylidene)methyl)-3,5-bis(trifluoromethyl)benzamide]	6.5	12.2			10.6	17.7
	COc1ccc(N2CC(NC(=O)c3cc(C(F)(F)F)cc(C(F)(F)F)c3)CC2=O)cc1Cl (stereo not shown) [Compound 55, N-(1-(3-chloro-4-methoxyphenyl)-5-oxopyrrolidin-3-yl)-3,5-bis(trifluoromethyl)benzamide]	4.5	26			7.4	23.9
	O=C(c1cc(C(F)(F)F)cc(C(F)(F)F)c1)N1CCCC(CNc2ccc(Cl)cc2)C1 (stereo not shown) [Compound 56]	11.5	8.3			24.8	22.4
	CC(C)(C)OC(=O)NC1CCN(c2ccc(Cl)cc2)C1 (stereo not shown) [Compound 57, tert-butyl (1-(4-chlorophenyl)pyrrolidin-3-yl)carbamate]	-44.4	18.7			9.2	21.1
	O=C(NC1CCN(c2ccc(Cl)cc2)C1)c1cc(C(F)(F)F)cc(C(F)(F)F)c1 (stereo not shown) [Compound 58, N-(1-(4-chlorophenyl)pyrrolidin-3-yl)-3,5-bis(trifluoromethyl)benzamide]	-4.6	10.5			-10.5	-1.7
